The values below come from US6653342B2, “13-substituted milbemycin derivatives, their preparation and their use against insects and other pests” (Sankyo Company, Limited, priority 2000, dated 2003).

Common to all, as to format: in vivo
Data set [1] relates to cat fleas. As to the kind of experiment: whole plant or invertebrate. The conditions noted are these: 1 ppm in bovine serum sucked through Parafilm at 37° C., dead fleas after 48 hours, 20 fleas per group, corrected by control group. The protocol:
(§1) A test container wherein the living space of fleas was isolated from bovine serum by use of Parafilm™ (obtainable from Aldrich Chemical Co. Ltd.), which is usually used as an artificial skin, was prepared. A compound to be tested was added to the bovine serum in an amount sufficient for its concentration to be 1 ppm, and the fleas were allowed to suck the serum sample through the Parafilm™ at 37° C. Each group consisted of 20 fleas. […] By counting the dead fleas in a control group without a test compound, the mortality was corrected.

For data set [2], the system named is cat fleas. The experiment in a line: Test on insecticidal effect against cat fleas (Test Example 12, serum feeding through Parafilm). The conditions noted are these: 1 ppm in bovine serum, 37° C., after 48 hours, corrected by control group. On the procedure:
as §1

For data set [3], the system named is two-spotted spider mites. As to the kind of experiment: Test on miticidal effect against two-spotted spider mites, cowpea leaf dip (Test Example 9). The conditions noted are these: for The death rate of mites (%): cowpea leaf dip, 2 days after treatment; for Death rate of hatchlings (%) / Death rate of mite eggs (%): 7 days after treatment; for Death rate of mite eggs (%): unhatched eggs; for The egg of two-spotted spider mite (7 days after) dead: number of dead eggs of total 20. The protocol:
The remainder of the test compound solution was removed and the treated leaf was allowed to stand in a Petri dish containing a sponge covered with a filter paper soaked in water. After the test compound solution on the leaf had dried, eggs of the mites were marked. The leaf was then allowed to stand at 25° C. on the Petri dish without a lid. Two days after treatment with the test compound, the death rate of mites (expressed as a percentage of the total number of mites) was determined. Seven to ten days after the treatment, the “death rate” of the mite eggs (expressed as the percentage of the total number of mite eggs which were unhatched) and the death rate of the hatchlings (expressed as the percentage of the total number of hatchlings which were killed) was estimated. The test was repeated at different concentrations of the test compound. “Untreated” in this test means the control test in which water was used instead of the test compound solution.

`CC[C@H]1O[C@]2(CC[C@@H]1C)C[C@@H]1C[C@@H](C/C=C(\C)[C@H](OC(=O)C3(c4ccccc4)CCCC3)[C@@H](C)/C=C/C=C3\CO[C@@H]4[C@H](O)C(C)=C[C@@H](C(=O)O1)[C@]34O)O2` [Comparative Compound A, reference compound]: the mortality at 1 ppm in data set [1] (Ctenocephalides felis) and in data set [2] (Ctenocephalides felis) was 2.4% each time.
As to `CCC1OC2(CCC1C)CC1CC(CC=C(C)C(OC(=O)C3(c4ccc(N)cc4)CCCC3)C(C)C=CC=C3COC4C(O)C(C)=CC(C(=O)O1)C34O)O2` (stereo not drawn) [Example 1(b), 13-[1-(4-Aminophenyl)cyclopentanecarbonyloxy]-5-hydroxymilbemycin A4], the “Mortality (%)” value in data set [1] is listed as 95.0%.
Still for that read-out and setting: the same measure for `CCC1OC2(CCC1C)CC1CC(CC=C(C)C(OC(=O)C3(c4ccc(NC(C)=O)cc4)CCCC3)C(C)C=CC=C3COC4C(O)C(C)=CC(C(=O)O1)C34O)O2` (stereo not drawn) [Example 2, 13-[1-(4-Acetylaminophenyl)cyclopentanecarbonyloxy]-5-hydroxymilbemycin A4]: 95.0%; for `CCC1OC2(CCC1C)CC1CC(CC=C(C)C(OC(=O)C3(c4ccc(NC(=O)CC#N)cc4)CCCC3)C(C)C=CC=C3COC4C(O)C(C)=CC(C(=O)O1)C34O)O2` (stereo not drawn) [Example 3, 13-[1-(4-Cyanoacetylaminophenyl)cyclopentanecarbonyloxy]-5-hydroxymilbemycin A4]: 81.4%.
Same read-out and setting: the result for `CCC1OC2(CCC1C)CC1CC(CC=C(C)C(OC(=O)C3(c4ccc(NS(C)(=O)=O)cc4)CCCC3)C(C)C=CC=C3COC4C(O)C(C)=CC(C(=O)O1)C34O)O2` (stereo not drawn) [Example 4, 13-[1-(4-Methanesulfonylaminophenyl)cyclopentanecarbonyloxy]-5-hydroxy-milbemycin A4] reads 100.0%; that for `CCC1OC2(CCC1C)CC1CC(CC=C(C)C(OC(=O)C3(c4ccc(NC(=O)CO)cc4)CCCC3)C(C)C=CC=C3COC4C(O)C(C)=CC(C(=O)O1)C34O)O2` (stereo not drawn) [Example 5, 13-[1-(4-Hydroxyacetylaminophenyl)cyclopentanecarbonyloxy]-5-hydroxy-milbemycin A4], 74.4%; that for `CCC1OC2(CCC1C)CC1CC(CC=C(C)C(OC(=O)C3(c4ccc(NC(=O)CN(C)C(C)=O)cc4)CCCC3)C(C)C=CC=C3COC4C(O)C(C)=CC(C(=O)O1)C34O)O2` (stereo not drawn) [Example 6, 13-{1-[4-(N-Acetyl-N-methylglycylamino)phenyl]cyclopentanecarbonyloxy}-5-hydroxymilbemycin A4], 79.5%.
Same read-out and setting: the same measure for `COCC(=O)Nc1ccc(C2(C(=O)OC3C(C)=CCC4CC(CC5(CCC(C)C(C)O5)O4)OC(=O)C4C=C(C)C(O)C5OCC(=CC=CC3C)C45O)CCCC2)cc1` (stereo not drawn) [Example 8, 13-[1-(4-Methoxyacetylaminophenyl)cyclopentanecarbonyloxy]-5-hydroxy-milbemycin A3]: 87.6%; for `CC1=CC2C(=O)OC3CC(CC=C(C)C(OC(=O)C4(c5ccc(NS(C)(=O)=O)cc5)CCCC4)C(C)C=CC=C4COC(C1O)C42O)OC1(CCC(C)C(C)O1)C3` (stereo not drawn) [Example 9, 13-[1-(4-Methanesulfonylaminophenyl)cyclopentanecarbonyloxy]-5-hydroxy-milbemycin A3]: 83.2%.
Take `CCC1OC2(CCC1C)CC1CC(CC=C(C)C(OC(=O)C3(c4ccc(NC(=O)COC)cc4)CCC3)C(C)C=CC=C3COC4C(O)C(C)=CC(C(=O)O1)C34O)O2` (stereo not drawn) [Example 15, 13-[1-(4-Methoxyacetylaminophenyl)cyclobutanecarbonyloxy]-5-hydroxy-milbemycin A4]: the “Mortality (%)” value in data set [2] was 100%.
Consider `CCC1OC2(CCC1C)CC1CC(CC=C(C)C(OC(=O)C3(c4ccc(NC(C)=O)cc4)CCC3)C(C)C=CC=C3COC4C(O)C(C)=CC(C(=O)O1)C34O)O2` (stereo not drawn) [Example 16, 13-[1-(4-Acetylaminophenyl)cyclobutanecarbonyloxy]-5-hydroxymilbemycin A4], for which, in data set [2], the “Mortality (%)” value was found to be 92.9%.
The same measure, in the same setting: the result for `CCC1OC2(CCC1C)CC1CC(CC=C(C)C(OC(=O)C3(c4ccc(NS(C)(=O)=O)cc4)CCC3)C(C)C=CC=C3COC4C(O)C(C)=CC(C(=O)O1)C34O)O2` (stereo not drawn) [Example 17, 13-[1-(4-Methanesulfonylaminophenyl)cyclobutanecarbonyloxy]-5-hydroxy-milbemycin A4] reads 94.9%; that for `CCC1OC2(CCC1C)CC1CC(CC=C(C)C(OC(=O)C3(c4ccc(NC(=O)C(F)(F)F)cc4)CCC3)C(C)C=CC=C3COC4C(O)C(C)=CC(C(=O)O1)C34O)O2` (stereo not drawn) [Example 18, 13-[1-(4-Trifluoroacetylaminophenyl)cyclobutanecarbonyloxy]-5-hydroxy-milbemycin A4], 91.5%.
Consider `C#CCCC(=O)Nc1ccc(C2(C(=O)OC3C(C)=CCC4CC(CC5(CCC(C)C(CC)O5)O4)OC(=O)C4C=C(C)C(O)C5OCC(=CC=CC3C)C45O)CCC2)cc1` (stereo not drawn) [Example 19, 13-[1-(4-Pentynoylaminophenyl)cyclobutanecarbonyloxy]-5-hydroxymilbemycin A4], for which the “Mortality (%)” value in data set [2] amounted to 90.7%.
Regarding `CC[C@H]1O[C@]2(CC[C@@H]1C)C[C@@H]1C[C@@H](C/C=C(\C)[C@H](OC(=O)C3(c4ccc(NC(=O)COC)cc4)CCCC3)[C@@H](C)/C=C/C=C3\CO[C@@H]4[C@H](O)C(C)=C[C@@H](C(=O)O1)[C@]34O)O2` [Test Compound Solution], the “The death rate of mites (%)” value in data set [3] (0.1 ppm) came out at 98.5%; in data set [3] (1 ppm), 100%; in data set [3] (10 ppm), 100%; in data set [3] (100 ppm) it was 100%. Besides, the “two-spotted spider mite (2 days after) dead” value in data set [3] (0.1 ppm, number of dead mites of total 65) is 64; in data set [3] (1 ppm, number of dead mites of total 55), 55; in data set [3] (10 ppm, number of dead mites of total 39), 39; in data set [3] (100 ppm, number of dead mites of total 48), 48. For the same compound, in data set [3] (0.1 ppm, number of mites in agony of total 65), the “two-spotted spider mite (2 days after) agony” value was determined as 1. Besides, the entries for the “Death rate of hatchlings (%)” value in data set [3] (1 ppm), in data set [3] (10 ppm) and in data set [3] (100 ppm) were 30%, 100% and 100%, respectively. Moreover, the “Death rate of mite eggs (%)” value is recorded as 0% in data set [3] (1 ppm), 25% in data set [3] (10 ppm) and 90% in data set [3] (100 ppm). Further, the entries for the “The egg of two-spotted spider mite (7 days after) dead” value in data set [3] (1 ppm), in data set [3] (10 ppm) and in data set [3] (100 ppm) were 0, 5 and 18, respectively.
